From ChEMBL document CHEMBL1147911, “Synthesis and evaluation of novel benzimidazole derivative [Bz-Im] and its radio/biological studies” (Bioorg Med Chem Lett, 2007)

What was measured:
[1] = biological target: T1, Cholecystokinin receptor type A (Rattus norvegicus, UniProt P30551); assay: Displacement of [125I](BH)CCK8 from rat CCK1 after 30 mins by receptor binding assay
T1 sequence (P30551 whole entry): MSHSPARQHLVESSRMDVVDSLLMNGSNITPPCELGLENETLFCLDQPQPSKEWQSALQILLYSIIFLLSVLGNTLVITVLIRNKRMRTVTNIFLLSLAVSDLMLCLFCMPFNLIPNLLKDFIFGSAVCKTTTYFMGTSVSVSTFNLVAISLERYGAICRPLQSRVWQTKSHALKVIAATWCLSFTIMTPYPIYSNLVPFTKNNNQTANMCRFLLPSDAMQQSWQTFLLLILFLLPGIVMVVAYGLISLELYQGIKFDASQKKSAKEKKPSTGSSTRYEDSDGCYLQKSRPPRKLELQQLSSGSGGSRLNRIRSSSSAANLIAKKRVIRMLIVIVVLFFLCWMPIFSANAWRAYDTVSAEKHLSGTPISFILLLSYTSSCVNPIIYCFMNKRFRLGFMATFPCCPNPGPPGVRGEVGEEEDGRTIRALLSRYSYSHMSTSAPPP

[2] = biological target: T2, Cholecystokinin receptor type A (Cavia porcellus, UniProt Q63931); assay: Displacement of [125I](BH)CCK8 from Guinea pig CCK1 after 30 mins by receptor binding assay
T2 sequence (Q63931 whole entry): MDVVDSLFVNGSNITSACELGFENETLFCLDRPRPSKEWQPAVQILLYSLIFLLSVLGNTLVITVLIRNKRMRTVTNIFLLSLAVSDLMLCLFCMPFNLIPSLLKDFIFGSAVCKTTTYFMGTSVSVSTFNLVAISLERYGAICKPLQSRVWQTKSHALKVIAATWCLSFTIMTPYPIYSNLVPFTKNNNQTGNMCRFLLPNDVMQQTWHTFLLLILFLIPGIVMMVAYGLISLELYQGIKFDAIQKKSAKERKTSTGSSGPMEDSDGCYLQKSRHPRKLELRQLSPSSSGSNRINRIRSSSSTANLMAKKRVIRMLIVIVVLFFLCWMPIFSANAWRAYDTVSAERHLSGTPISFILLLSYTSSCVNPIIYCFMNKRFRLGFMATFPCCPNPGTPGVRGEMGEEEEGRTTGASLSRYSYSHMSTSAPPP

Aspergillus flavus [3] = assay: Antifungal activity against Aspergillus flavus at 10 ug/ml after seven days by agar plate method; type: functional; details: 168 h
Aspergillus flavus [4] = assay: Antifungal activity against Aspergillus flavus at 20 ug/ml after seven days by agar plate method; type: functional; details: 168 h
Aspergillus flavus [5] = assay: Antifungal activity against Aspergillus flavus at 50 ug/ml after seven days by agar plate method; type: functional; details: 168 h
Aspergillus niger [6] = assay: Antifungal activity against Aspergillus niger at 20 ug/ml after seven days by agar plate method; type: functional; details: 168 h
Aspergillus niger [7] = assay: Antifungal activity against Aspergillus niger at 50 ug/ml after seven days by agar plate method; type: functional; details: 168 h
Aspergillus niger [8] = assay: Antifungal activity against Aspergillus niger at 10 ug/ml after seven days by agar plate method; type: functional; details: 168 h
Stomach [9] = assay: Biodistribution in Albino mouse stomach at 10 uCi after 1 hr; type: ADME, organism-based; details: in vivo
Stomach [10] = assay: Biodistribution in Albino mouse stomach at 10 uCi after 2 hr; type: ADME, organism-based; details: in vivo
Stomach [11] = assay: Biodistribution in Albino mouse stomach at 10 uCi after 4 hr; type: ADME, organism-based; details: in vivo
Stomach [12] = assay: Biodistribution in Albino mouse stomach at 10 uCi after 6 hr; type: ADME, organism-based; details: in vivo
Stomach [13] = assay: Biodistribution in Albino mouse stomach at 10 uCi after 8 hr; type: ADME, organism-based; details: in vivo
Intestine [14] = assay: Biodistribution in Albino mouse intestine at 10 uCi after 1 hr; type: ADME, organism-based; details: in vivo
Intestine [15] = assay: Biodistribution in Albino mouse intestine at 10 uCi after 2 hr; type: ADME, organism-based; details: in vivo
Intestine [16] = assay: Biodistribution in Albino mouse intestine at 10 uCi after 4 hr; type: ADME, organism-based; details: in vivo
Intestine [17] = assay: Biodistribution in Albino mouse intestine at 10 uCi after 6 hr; type: ADME, organism-based; details: in vivo
Intestine [18] = assay: Biodistribution in Albino mouse intestine at 10 uCi after 8 hr; type: ADME, organism-based; details: in vivo
Brain [19] = assay: Biodistribution in Albino mouse brain at 10 uCi after 2 hr; type: ADME, organism-based; details: in vivo
Brain [20] = assay: Biodistribution in Albino mouse brain at 10 uCi after 4 hr; type: ADME, organism-based; details: in vivo
Brain [21] = assay: Biodistribution in Albino mouse brain at 10 uCi after 6 hr; type: ADME, organism-based; details: in vivo
Brain [22] = assay: Biodistribution in Albino mouse brain at 10 uCi after 8 hr; type: ADME, organism-based; details: in vivo
Liver [23] = assay: Biodistribution in Albino mouse liver at 10 uCi after 1 hr; type: ADME, organism-based; details: in vivo
Liver [24] = assay: Biodistribution in Albino mouse liver at 10 uCi after 2 hr; type: ADME, organism-based; details: in vivo
Liver [25] = assay: Biodistribution in Albino mouse liver at 10 uCi after 4 hr; type: ADME, organism-based; details: in vivo
Liver [26] = assay: Biodistribution in Albino mouse liver at 10 uCi after 6 hr; type: ADME, organism-based; details: in vivo
Liver [27] = assay: Biodistribution in Albino mouse liver at 10 uCi after 8 hr; type: ADME, organism-based; details: in vivo
Spleen [28] = assay: Biodistribution in Albino mouse spleen at 10 uCi after 1 hr; type: ADME, organism-based; details: in vivo
Spleen [29] = assay: Biodistribution in Albino mouse spleen at 10 uCi after 2 hr; type: ADME, organism-based; details: in vivo
Spleen [30] = assay: Biodistribution in Albino mouse spleen at 10 uCi after 4 hr; type: ADME, organism-based; details: in vivo
Spleen [31] = assay: Biodistribution in Albino mouse spleen at 10 uCi after 6 hr; type: ADME, organism-based; details: in vivo
Spleen [32] = assay: Biodistribution in Albino mouse spleen at 10 uCi after 8 hr; type: ADME, organism-based; details: in vivo
Kidney [33] = assay: Biodistribution in Albino mouse kidney at 10 uCi after 1 hr; type: ADME, organism-based; details: in vivo
Kidney [34] = assay: Biodistribution in Albino mouse kidney at 10 uCi after 2 hr; type: ADME, organism-based; details: in vivo
Kidney [35] = assay: Biodistribution in Albino mouse kidney at 10 uCi after 4 hr; type: ADME, organism-based; details: in vivo
Kidney [36] = assay: Biodistribution in Albino mouse kidney at 10 uCi after 6 hr; type: ADME, organism-based; details: in vivo
Kidney [37] = assay: Biodistribution in Albino mouse kidney at 10 uCi after 8 hr; type: ADME, organism-based; details: in vivo
Blood [38] = assay: Biodistribution in Albino mouse blood at 10 uCi after 1 hr; type: ADME, organism-based; details: in vivo
Blood [39] = assay: Biodistribution in Albino mouse blood at 10 uCi after 2 hr; type: ADME, organism-based; details: in vivo
Blood [40] = assay: Biodistribution in Albino mouse blood at 10 uCi after 4 hr; type: ADME, organism-based; details: in vivo
Blood [41] = assay: Biodistribution in Albino mouse blood at 10 uCi after 6 hr; type: ADME, organism-based; details: in vivo
Blood [42] = assay: Biodistribution in Albino mouse blood at 10 uCi after 8 hr; type: ADME, organism-based; details: in vivo
Heart [43] = assay: Biodistribution in Albino mouse heart at 10 uCi after 1 hr; type: ADME, organism-based; details: in vivo
Heart [44] = assay: Biodistribution in Albino mouse heart at 10 uCi after 2 hr; type: ADME, organism-based; details: in vivo
Heart [45] = assay: Biodistribution in Albino mouse heart at 10 uCi after 4 hr; type: ADME, organism-based; details: in vivo
Heart [46] = assay: Biodistribution in Albino mouse heart at 10 uCi after 6 hr; type: ADME, organism-based; details: in vivo
Heart [47] = assay: Biodistribution in Albino mouse heart at 10 uCi after 8 hr; type: ADME, organism-based; details: in vivo

Structure (SMILES): O=C1c2ccccc2C(=O)N1Cc1c(O)ccc2c(/C=C/c3ccc(-c4ccccc4)cc3)cc3nc4ccccc4n3c12
- IC50 [1]: 0.197 µM
- IC50 [2]: 16.4 µM

Structure (SMILES): O=C1c2ccccc2C(=O)N1Cc1c(O)ccc2c(/C=C/c3ccccc3)cc3nc4ccccc4n3c12
- IC50 [1]: 0.942 µM
- IC50 [2]: 4.32 µM
- inhibition at 10 µg/mL (Aspergillus flavus [3]): 73.3%
- inhibition at 20 µg/mL (Aspergillus flavus [4]): 76.7%
- inhibition at 50 µg/mL (Aspergillus flavus [5]): 88.3%
- inhibition at 20 µg/mL (Aspergillus niger [6]): 76.8%
- inhibition at 50 µg/mL (Aspergillus niger [7]): 84.6%
- inhibition at 10 µg/mL (Aspergillus niger [8]): 60.3%
- Drug uptake (Stomach [9]): 1 % ID/g
- Drug uptake (Stomach [10]): 2.5 % ID/g
- Drug uptake (Stomach [11]): 3 % ID/g
- Drug uptake (Stomach [12]): 7 % ID/g
- Drug uptake (Stomach [13]): 9.5 % ID/g
- Drug uptake (Intestine [14]): 0.5 % ID/g
- Drug uptake (Intestine [15]): 0.5 % ID/g
- Drug uptake (Intestine [16]): 0.2 % ID/g
- Drug uptake (Intestine [17]): 3 % ID/g
- Drug uptake (Intestine [18]): 3 % ID/g
- Drug uptake (Brain [19]): 0.2 % ID/g
- Drug uptake (Brain [20]): 0.45 % ID/g
- Drug uptake (Brain [21]): 1 % ID/g
- Drug uptake (Brain [22]): 1 % ID/g
- Drug uptake (Liver [23]): 18 % ID/g
- Drug uptake (Liver [24]): 25 % ID/g
- Drug uptake (Liver [25]): 18 % ID/g
- Drug uptake (Liver [26]): 15 % ID/g
- Drug uptake (Liver [27]): 15 % ID/g
- Drug uptake (Spleen [28]): 10 % ID/g
- Drug uptake (Spleen [29]): 15 % ID/g
- Drug uptake (Spleen [30]): 14 % ID/g
- Drug uptake (Spleen [31]): 12 % ID/g
- Drug uptake (Spleen [32]): 11 % ID/g
- Drug uptake (Kidney [33]): 5 % ID/g
- Drug uptake (Kidney [34]): 7 % ID/g
- Drug uptake (Kidney [35]): 2 % ID/g
- Drug uptake (Kidney [36]): 5 % ID/g
- Drug uptake (Kidney [37]): 5 % ID/g
- Drug uptake (Blood [38]): 3 % ID/g
- Drug uptake (Blood [39]): 2 % ID/g
- Drug uptake (Blood [40]): 2 % ID/g
- Drug uptake (Blood [41]): 0.5 % ID/g
- Drug uptake (Blood [42]): 0.5 % ID/g
- Drug uptake (Heart [43]): 1 % ID/g
- Drug uptake (Heart [44]): 0.4 % ID/g
- Drug uptake (Heart [45]): 0.3 % ID/g
- Drug uptake (Heart [46]): 0.3 % ID/g
- Drug uptake (Heart [47]): 0.2 % ID/g

Structure (SMILES): O=C1c2ccccc2C(=O)N1Cc1c(O)ccc2c(/C=C/c3ccc(O)cc3)cc3nc4ccccc4n3c12
- IC50 [1]: 0.665 µM
- IC50 [2]: 2.94 µM
- inhibition at 10 µg/mL (Aspergillus flavus [3]): 60.8%
- inhibition at 20 µg/mL (Aspergillus flavus [4]): 73.4%
- inhibition at 50 µg/mL (Aspergillus flavus [5]): 92.1%
- inhibition at 20 µg/mL (Aspergillus niger [6]): 83.2%
- inhibition at 50 µg/mL (Aspergillus niger [7]): 83.6%
- inhibition at 10 µg/mL (Aspergillus niger [8]): 60.7%
- Drug uptake (Stomach [9]): 1 % ID/g
- Drug uptake (Stomach [10]): 2 % ID/g
- Drug uptake (Stomach [11]): 3 % ID/g
- Drug uptake (Stomach [12]): 7 % ID/g
- Drug uptake (Stomach [13]): 7.5 % ID/g
- Drug uptake (Intestine [14]): 0.5 % ID/g
- Drug uptake (Intestine [15]): 0.5 % ID/g
- Drug uptake (Intestine [16]): 0.2 % ID/g
- Drug uptake (Intestine [17]): 1 % ID/g
- Drug uptake (Intestine [18]): 1 % ID/g
- Drug uptake (Brain [19]): 0.2 % ID/g
- Drug uptake (Brain [20]): 0.45 % ID/g
- Drug uptake (Brain [21]): 1 % ID/g
- Drug uptake (Brain [22]): 1 % ID/g
- Drug uptake (Liver [23]): 16 % ID/g
- Drug uptake (Liver [24]): 23 % ID/g
- Drug uptake (Liver [25]): 14 % ID/g
- Drug uptake (Liver [26]): 15 % ID/g
- Drug uptake (Liver [27]): 15 % ID/g
- Drug uptake (Spleen [28]): 10 % ID/g
- Drug uptake (Spleen [29]): 15 % ID/g
- Drug uptake (Spleen [30]): 17 % ID/g
- Drug uptake (Spleen [31]): 16 % ID/g
- Drug uptake (Spleen [32]): 16 % ID/g
- Drug uptake (Kidney [33]): 5.5 % ID/g
- Drug uptake (Kidney [34]): 6 % ID/g
- Drug uptake (Kidney [35]): 3 % ID/g
- Drug uptake (Kidney [36]): 4.5 % ID/g
- Drug uptake (Kidney [37]): 4.5 % ID/g
- Drug uptake (Blood [38]): 2.5 % ID/g
- Drug uptake (Blood [39]): 2 % ID/g
- Drug uptake (Blood [40]): 2 % ID/g
- Drug uptake (Blood [41]): 2.5 % ID/g
- Drug uptake (Blood [42]): 2.5 % ID/g
- Drug uptake (Heart [43]): 0.8 % ID/g
- Drug uptake (Heart [44]): 0.5 % ID/g
- Drug uptake (Heart [45]): 0.2 % ID/g
- Drug uptake (Heart [46]): 0.1 % ID/g
- Drug uptake (Heart [47]): 0.2 % ID/g

Structure (SMILES): C[C@@H]1[C@H](O)[C@@H](C)/C=C/C=C/C=C/C=C/C=C/C=C/C=C/[C@H](O[C@@H]2O[C@H](C)[C@@H](O)[C@H](N)[C@@H]2O)C[C@@H]2O[C@](O)(C[C@@H](O)C[C@@H](O)[C@H](O)CC[C@@H](O)C[C@@H](O)CC(=O)O[C@H]1C)C[C@H](O)[C@H]2C(=O)O [AMPHOTERICIN B]
- inhibition at 20 µg/mL (Aspergillus flavus [4]): 86.4%
- inhibition at 20 µg/mL (Aspergillus niger [6]): 79.9%
